Experiments:
Ctenocephalides felis = assay: In vitro ingestion activity against fleas (artificial feeding, bovine blood); conditions: for mortality at 0.003 ppm: Trial 3, dose 0.003 ppm; for mortality at 0.012 ppm: Trial 3, dose 0.012 ppm; for mortality at 0.049 ppm: Trial 3, dose 0.049 ppm; for mortality at 0.2 ppm: Trial 3, dose 0.20 ppm; for mortality at 0.78 ppm: Trial 3, dose 0.78 ppm; for mortality at 3.125 ppm: Trial 3, dose 3.125 ppm; for mortality at 12.5 ppm: Trial 3, dose 12.5 ppm; for mortality at 50 ppm: Trial 3, dose 50 ppm
Description: Ctenocephalides felis (Avista Pharma, Inc., RTP, NC), 1-7days post hatch, held in an environmental chamber at 24° C., 85% humidity.
For flea ingestion tests, serial dilutions of the compound stock were performed using DMSO to achieve the desired range for EC50 and EC90 determination. An aliquot of each compound dilution was added to organic bovine blood with a final DMSO concentration of 0.5% and placed in an artificial feeding container.
Compounds tested were C1 racemate, the C1 (R) enantiomer, and the C1 (S) enantiomer. For Trial 3, the C1 (R) enantiomer and the C1 (S) enantiomer were further chiral purified to achieve >99% purity.
For both contact and ingestion assays, ten newly emerged unfed adult fleas, 0-7 days old Ctenocephalides felis, from a laboratory colony, were aspirated into each vial or cage. The test vials for contact assays were held in an environmental chamber at 24° C., 80% humidity with light/dark cycles (12 hours each). The cages for flea ingestion assays were held in a temperature-controlled artificial feeding apparatus to allow continual access to organic bovine blood containing the desired concentration of compound. Fresh aliquots of compound-spiked bovine blood were provided daily for the duration of the study.
Fleas were evaluated for percent mortality at various time points between 2 hours and 48 hours post infestation. Fleas showing normal movement and/or jumping ability were considered viable and those showing no movement after tapping the vials were scored as dead.

Rhipicephalus sanguineus = assay: In vitro contact activity against adult ticks (coated vial), R. sanguineus; conditions: for mortality at 0.006 µM: Trial 3, dose 0.006 μM; for mortality at 0.024 µM: Trial 3, dose 0.024 μM; for mortality at 0.098 µM: Trial 3, dose 0.098 μM; for mortality at 0.39 µM: Trial 3, dose 0.39 μM; for mortality at 1.56 µM: Trial 3, dose 1.56 μM; for mortality at 6.25 µM: Trial 3, dose 6.25 μM; for mortality at 25 µM: Trial 3, dose 25 μM; for mortality at 100 µM: Trial 3, dose 100 μM
Description: Rhipicephalus sanguineus, Dermacentor variabilis, Amblyomma americanum, (Ecto Services, Inc., Henderson, N.C.) and Ixodes scapularis (Oklahoma State University, Stillwater, Okla.) aged between 2-4 weeks post molt were held in an environmental chamber at 24° C., 80% humidity with 12-hour light/dark cycles.
For tick assays, vial caps were pre-drilled with a single hole in the center of each cap to allow air exchange. A filter paper (Whatman Grade 540 2.1 cm) was placed in the lid of each vial. An aliquot from each compound stock was added to an acetone/triton solution to achieve the desired top doses for the study. Serial dilutions were conducted from the top dose (i.e. 100 ppm) to achieve the desired titration range for EC50 and EC90 determination. For R. sanguineus, D. variabilis, and A. americanum, the final DMSO concentration in each test vial was 0.5%. For I. scapularis, compounds were solubilized directly in an acetone/triton solution due to I. scapularis' sensitivity to DMSO. A 459 μL aliquot of each compound formulation was transferred to a vial containing a Whatman Grade 540 2.1 cm filter paper. Vials were immediately placed on an unheated roller unit to allow for an even coating of the vial walls. After vials were coated, 41 μL of each compound formulation was added to the filter paper embedded in each vial cap. Each cap was allowed to dry. The vials were loosely capped and allowed to dry for a minimum of four hours in a chemical fume hood.
Compounds tested were: the C1 racemate, C1 (R) enantiomer, and the C1 (S) enantiomer. For Trial 3, the C1 (R) enantiomer and the C1 (S) enantiomer were further chiral purified to achieve >99% purity.
Ten adult ticks were added to each vial and held at 24° C., 80% humidity with 12-hour light/dark cycles. Adult ticks were assessed for percent mortality at various time points between 2 hours and 48 hours post infestation. Ticks were stimulated on a heated roller unit and evaluated. Ticks showing no movement, or very slow and uncoordinated movement were noted as dead.

O=C(CC(F)(F)F)N1CC2(C1)OCc1cc(C3=NS[C@@](c4cc(Cl)c(F)c(Cl)c4)(C(F)(F)F)C3)ccc12 [C1 (S) enantiomer, (S)-1-[6-[5-(3,5-dichloro-4-fluoro-phenyl)-5-(trifluoromethyl)-4H-isothiazol-3-yl]spiro[1H-isobenzofuran-3,3′-azetidine]-1′-yl]-3,3,3-trifluoro-propan-1-one]
mortality at 0.003 ppm (Ctenocephalides felis; 6 h, Rep1): 0% | mortality at 0.003 ppm (Ctenocephalides felis; 6 h, Rep2): 0% | mortality at 0.012 ppm (Ctenocephalides felis; 6 h, Rep1): 0% | mortality at 0.012 ppm (Ctenocephalides felis; 6 h, Rep2): 0% | mortality at 0.049 ppm (Ctenocephalides felis; 6 h, Rep1): 0% | mortality at 0.049 ppm (Ctenocephalides felis; 6 h, Rep2): 0% | mortality at 0.2 ppm (Ctenocephalides felis; 6 h, Rep1): 10% | mortality at 0.2 ppm (Ctenocephalides felis; 6 h, Rep2): 20% | mortality at 0.78 ppm (Ctenocephalides felis; 6 h, Rep1): 80% | mortality at 0.78 ppm (Ctenocephalides felis; 6 h, Rep2): 70% | mortality at 3.125 ppm (Ctenocephalides felis; 6 h, Rep1): 100% | mortality at 3.125 ppm (Ctenocephalides felis; 6 h, Rep2): 60% | mortality at 12.5 ppm (Ctenocephalides felis; 6 h, Rep1): 100% | mortality at 12.5 ppm (Ctenocephalides felis; 6 h, Rep2): 100% | mortality at 50 ppm (Ctenocephalides felis; 6 h, Rep1): 100% | mortality at 50 ppm (Ctenocephalides felis; 6 h, Rep2): 100% | mortality at 0.003 ppm (Ctenocephalides felis; 24 h, Rep1): 0% | mortality at 0.003 ppm (Ctenocephalides felis; 24 h, Rep2): 0% | mortality at 0.012 ppm (Ctenocephalides felis; 24 h, Rep1): 0% | mortality at 0.012 ppm (Ctenocephalides felis; 24 h, Rep2): 0% | mortality at 0.049 ppm (Ctenocephalides felis; 24 h, Rep1): 20% | mortality at 0.049 ppm (Ctenocephalides felis; 24 h, Rep2): 10% | mortality at 0.2 ppm (Ctenocephalides felis; 24 h, Rep1): 10% | mortality at 0.2 ppm (Ctenocephalides felis; 24 h, Rep2): 50% | mortality at 0.78 ppm (Ctenocephalides felis; 24 h, Rep1): 100% | mortality at 0.78 ppm (Ctenocephalides felis; 24 h, Rep2): 90% | mortality at 3.125 ppm (Ctenocephalides felis; 24 h, Rep1): 100% | mortality at 3.125 ppm (Ctenocephalides felis; 24 h, Rep2): 80% | mortality at 12.5 ppm (Ctenocephalides felis; 24 h, Rep1): 100% | mortality at 12.5 ppm (Ctenocephalides felis; 24 h, Rep2): 100% | mortality at 50 ppm (Ctenocephalides felis; 24 h, Rep1): 100% | mortality at 50 ppm (Ctenocephalides felis; 24 h, Rep2): 100% | mortality at 0.003 ppm (Ctenocephalides felis; 48 h, Rep1): 0% | mortality at 0.003 ppm (Ctenocephalides felis; 48 h, Rep2): 0% | mortality at 0.012 ppm (Ctenocephalides felis; 48 h, Rep1): 0% | mortality at 0.012 ppm (Ctenocephalides felis; 48 h, Rep2): 0% | mortality at 0.049 ppm (Ctenocephalides felis; 48 h, Rep1): 20% | mortality at 0.049 ppm (Ctenocephalides felis; 48 h, Rep2): 20% | mortality at 0.2 ppm (Ctenocephalides felis; 48 h, Rep1): 30% | mortality at 0.2 ppm (Ctenocephalides felis; 48 h, Rep2): 70% | mortality at 0.78 ppm (Ctenocephalides felis; 48 h, Rep1): 100% | mortality at 0.78 ppm (Ctenocephalides felis; 48 h, Rep2): 90% | mortality at 3.125 ppm (Ctenocephalides felis; 48 h, Rep1): 100% | mortality at 3.125 ppm (Ctenocephalides felis; 48 h, Rep2): 100% | mortality at 12.5 ppm (Ctenocephalides felis; 48 h, Rep1): 100% | mortality at 12.5 ppm (Ctenocephalides felis; 48 h, Rep2): 100% | mortality at 50 ppm (Ctenocephalides felis; 48 h, Rep1): 100% | mortality at 50 ppm (Ctenocephalides felis; 48 h, Rep2): 100% | mortality at 0.006 µM (Rhipicephalus sanguineus; 2 h, Rep1): 0% | mortality at 0.006 µM (Rhipicephalus sanguineus; 2 h, Rep2): 0% | mortality at 0.024 µM (Rhipicephalus sanguineus; 2 h, Rep1): 0% | mortality at 0.024 µM (Rhipicephalus sanguineus; 2 h, Rep2): 0% | mortality at 0.098 µM (Rhipicephalus sanguineus; 2 h, Rep1): 0% | mortality at 0.098 µM (Rhipicephalus sanguineus; 2 h, Rep2): 0% | mortality at 0.39 µM (Rhipicephalus sanguineus; 2 h, Rep1): 0% | mortality at 0.39 µM (Rhipicephalus sanguineus; 2 h, Rep2): 0% | mortality at 1.56 µM (Rhipicephalus sanguineus; 2 h, Rep1): 0% | mortality at 1.56 µM (Rhipicephalus sanguineus; 2 h, Rep2): 0% | mortality at 6.25 µM (Rhipicephalus sanguineus; 2 h, Rep1): 0% | mortality at 6.25 µM (Rhipicephalus sanguineus; 2 h, Rep2): 0% | mortality at 25 µM (Rhipicephalus sanguineus; 2 h, Rep1): 0% | mortality at 25 µM (Rhipicephalus sanguineus; 2 h, Rep2): 0% | mortality at 100 µM (Rhipicephalus sanguineus; 2 h, Rep1): 50% | mortality at 100 µM (Rhipicephalus sanguineus; 2 h, Rep2): 10% | mortality at 0.006 µM (Rhipicephalus sanguineus; 6 h, Rep1): 0% | mortality at 0.006 µM (Rhipicephalus sanguineus; 6 h, Rep2): 0% | mortality at 0.024 µM (Rhipicephalus sanguineus; 6 h, Rep1): 0% | mortality at 0.024 µM (Rhipicephalus sanguineus; 6 h, Rep2): 0% | mortality at 0.098 µM (Rhipicephalus sanguineus; 6 h, Rep1): 0% | mortality at 0.098 µM (Rhipicephalus sanguineus; 6 h, Rep2): 0% | mortality at 0.39 µM (Rhipicephalus sanguineus; 6 h, Rep1): 0% | mortality at 0.39 µM (Rhipicephalus sanguineus; 6 h, Rep2): 0% | mortality at 1.56 µM (Rhipicephalus sanguineus; 6 h, Rep1): 10% | mortality at 1.56 µM (Rhipicephalus sanguineus; 6 h, Rep2): 0% | mortality at 6.25 µM (Rhipicephalus sanguineus; 6 h, Rep1): 80% | mortality at 6.25 µM (Rhipicephalus sanguineus; 6 h, Rep2): 60% | mortality at 25 µM (Rhipicephalus sanguineus; 6 h, Rep1): 90% | mortality at 25 µM (Rhipicephalus sanguineus; 6 h, Rep2): 100% | mortality at 100 µM (Rhipicephalus sanguineus; 6 h, Rep1): 100% | mortality at 100 µM (Rhipicephalus sanguineus; 6 h, Rep2): 100% | mortality at 0.006 µM (Rhipicephalus sanguineus; 12 h, Rep1): 0% | mortality at 0.006 µM (Rhipicephalus sanguineus; 12 h, Rep2): 0% | mortality at 0.024 µM (Rhipicephalus sanguineus; 12 h, Rep1): 0% | mortality at 0.024 µM (Rhipicephalus sanguineus; 12 h, Rep2): 0% | mortality at 0.098 µM (Rhipicephalus sanguineus; 12 h, Rep1): 0% | mortality at 0.098 µM (Rhipicephalus sanguineus; 12 h, Rep2): 0% | mortality at 0.39 µM (Rhipicephalus sanguineus; 12 h, Rep1): 10% | mortality at 0.39 µM (Rhipicephalus sanguineus; 12 h, Rep2): 10% | mortality at 1.56 µM (Rhipicephalus sanguineus; 12 h, Rep1): 40% | mortality at 1.56 µM (Rhipicephalus sanguineus; 12 h, Rep2): 50% | mortality at 6.25 µM (Rhipicephalus sanguineus; 12 h, Rep1): 100% | mortality at 6.25 µM (Rhipicephalus sanguineus; 12 h, Rep2): 100% | mortality at 25 µM (Rhipicephalus sanguineus; 12 h, Rep1): 100% | mortality at 25 µM (Rhipicephalus sanguineus; 12 h, Rep2): 100% | mortality at 100 µM (Rhipicephalus sanguineus; 12 h, Rep1): 100% | mortality at 100 µM (Rhipicephalus sanguineus; 12 h, Rep2): 100%
